Measurements as given in patent US6864275B1, “Compounds and methods for use thereof in the treatment of cancer” (UAF Technologies and Research, LLC, priority 1997, dated 2005).

What was measured:
[1] = tested on: B16 murine melanoma; test: In vivo B16 murine melanoma tumor model; design: species or system B6D2F1 mice; details: qd × 5; for T/C (%): mean survival treated/control; for # of Survivors: survived at least 60 days
Description: B6D2F1 mice received interperitoneally (i.p.) inocula of B16 murine melanoma brei prepared from B16 tumors growing s.c. in mice (Day 0). On Day 1, mice were randomized into groups, with 20 mice in the control group and 10 mice in each treated group (except there were 8 mice in selected groups given compound 3-13. Treatment with drugs or vehicle control was started on Day 1.
The mean survival times of all groups were calculated and results were expressed as mean survival of treated mice/mean survival of control mice (T/C)×100%. A “T/C” value of 150 means that the mice in the treated group lived 50% longer than those of the control group; this is sometimes referred to as the increase in life span, or ILS value.
Mice that survived for at least 60 days were considered to be long-term survivors, or cures, in the B16 model. The universally accepted cut-off for activity in this model, which has been used for years by the NCI, is T/C=125. Conventional use of B16 over the years has set the following levels of activity:
T/C>300, with long-term survivors=excellent, curative activity.

[2] = tested on: B16 murine melanoma; test: MTT cell growth inhibition, B16 melanoma cells; assay type: cell-based; details: 3-6 days incubation
Description: (§1) The following cell culture tests were performed to test the toxicity of benzimidazole derivative compounds of the present invention on colon and melanoma tumor cells. The viability of the cells were tested by looking at MTT (3-[4,5-dimethylthiazol-2-yl]-2,5-diphenyltetrazolium bromide) reduction. MTT assay is a well known measure of cell viability.
(§2) The colon tumor cells (HT29) and the melanoma cells (B16 murine melanoma) were seeded (1000-2000 cells) into each well of a 96-well microtiter plate and allowed to grow. Twenty-four hours later, increasing concentrations of each benzimidazole derivative were added to the plates and the cells were allowed to incubate for 3-6 days in the presence of the drugs. MTT reagent was then added to the wells and allowed to incubate for 4 hours at 37° C., after which the formazan metabolite was solubilized with acidic isopropanol and the absorbance was read. Experimental controls included blank wells to which no cells were added (zero point of formazan absorbance) and control wells to which no drug was added (highest level of formazan absorbance). Each drug concentration was tested in duplicate and the resulting average absorbance was plotted against drug concentration using the EZ-ED50 computer program on a personal computer interfaced to the microtiter plate reader. […] The IC50 value is then derived from this equation by EZ-ED50.

[3] = tested on: Tubulin; test: Microtubule inhibition assay (tubulin polymerization, absorbance at 350 nm); assay type: biochemical, bovine; details: compound at 2 μM, after 30 minutes
Description: The benzimidazole derivatives of this invention were evaluated for their ability to inhibit formation of microtubules, following the procedure of Luduena, R. F. and M. C. […] Microtubule polymerization was followed by performing the reaction in a cuvette and monitoring UV absorbance at 350 nm, allowing direct visualization of the time course of the polymerization.

[4] = tested on: colon tumor cells (HT29); test: MTT cell growth inhibition, HT29 colon tumor cells; assay type: cell-based; details: 3-6 days incubation, read-out: IC50 Human Colon Carcinoma
Description: as §1, §2

Compound | # of Toxic Deaths ([1]; 10 mg/kg/i.v) | Weight Change (Day 12) ([1]; 10 mg/kg/i.v) | T/C (%) ([1]; 10 mg/kg/i.v) | # of Survivors ([1]; 10 mg/kg/i.v) | # of Toxic Deaths ([1]; 20 mg/kg/i.v) | Weight Change (Day 12) ([1]; 20 mg/kg/i.v) | T/C (%) ([1]; 20 mg/kg/i.v) | # of Survivors ([1]; 20 mg/kg/i.v) | # of Toxic Deaths ([1]; 50 mg/kg/i.p) | Weight Change (Day 12) ([1]; 50 mg/kg/i.p) | T/C (%) ([1]; 50 mg/kg/i.p) | # of Survivors ([1]; 50 mg/kg/i.p) | # of Toxic Deaths ([1]; 100 mg/kg/i.p) | Weight Change (Day 12) ([1]; 100 mg/kg/i.p) | T/C (%) ([1]; 100 mg/kg/i.p) | # of Survivors ([1]; 100 mg/kg/i.p) | IC50 [2] [nM] | Tubulin Polymerization Inhibition, % Inhibition [3] [%] | IC50 [4] [nM] | other results
C=CCCOC(=O)c1ccc2nc(NC(=O)OC)[nH]c2c1 [3-6] | 0 | +8.7% | 107 | 0 | 0 | +6.5% | 99 | 0 | 0 | +9.4% | 119 | 0 | 0 | +8.9% | 118 | 0 | 44 | 12 | 7.6 | –
COC(=O)Nc1nc2ccc(C(=O)OCC(C)CC(C)(C)C)cc2[nH]1 (stereo not shown) [3-13] | – | – | – | – | – | – | – | – | 0 | +12.5% | 94 | 0 | 0 | +9.8% | 75 | 0 | 4.6 | 28 | 19 | # of Toxic Deaths ([1]; 2.5 mg/kg/i.v): 0; Weight Change (Day 12) ([1]; 2.5 mg/kg/i.v): +11.7%; T/C (%) ([1]; 2.5 mg/kg/i.v): 92%; # of Survivors ([1]; 2.5 mg/kg/i.v): 0; # of Toxic Deaths ([1]; 5 mg/kg/i.v): 7; Weight Change (Day 12) ([1]; 5 mg/kg/i.v): +3.6%; T/C (%) ([1]; 5 mg/kg/i.v): 91%; # of Survivors ([1]; 5 mg/kg/i.v): 0
COC(=O)Nc1nc2ccc(C(=O)OCCCCCl)cc2[nH]1 [Cpd. No. 3-1] | 0 | +9.3% | 97 | 0 | 0 | +6.3% | 98 | 0 | 0 | +7.5% | 132 | – | 0 | +12.9% | 108 | 0 | 11 | 28 | 10 | antitumor activity level by NCI criteria ([1]; 50 mg/kg/i.p): weak activity (T/C=125-150, weak activity)
CCC(C)COC(=O)c1ccc2nc(NC(=O)OC)[nH]c2c1 (stereo not shown) [3-19] | – | – | – | – | 0 | +7.8% | 106 | 0 | 0 | +9.6% | 119 | 0 | 0 | +10.8% | 124 | 0 | 48 | 28 | 12 | # of Toxic Deaths ([1]; 40 mg/kg/i.v): 6; Weight Change (Day 12) ([1]; 40 mg/kg/i.v): +2.5%; T/C (%) ([1]; 40 mg/kg/i.v): 73%; # of Survivors ([1]; 40 mg/kg/i.v): 0
